Consider two compounds from patent US12496290B2, “Method and compounds for treating or preventing autoimmune disorders or immune responses modulated by the expression of IDO1” (The Trustees of Princeton University, priority 2019, dated 2025).

Experiment [1] has as its target IDO1 (Homo sapiens, UniProt P14902). Description: IDO1 activity assay, N-formylkynurenine absorbance at 321 nm. It counts as biochemical. As for the experimental part: FIG. 6 reflects a system involving IDO1 (50 nM), 0.1 mM L-tryptophan, and 5 mM glutathione in 100 mM sodium phosphate, pH 7.0 with <1 μM 6-chloro-5-fluoro-1H-indole-3-thiol.
The activity of the compounds was determined as follows. UV—vis spectra were recorded using a Hewlett-Packer 8453 diode array spectrophotometer. Activity assays were done at room temperature using 100 mM sodium phosphate, pH 7.0, with 500 nM IDO1 (ε404 nm=172 mM^−1 cm^−1) and 50 μM L-tryptophan. These were initiated by addition of IDO1, and activity was monitored at 321 nm where product N-formylkynurenine absorbs (ε321 nm=3750 M^−1 cm^−1).
The substituted indole compound was prepared daily in a 100 mM stock solution in dimethyl sulfoxide (DMSO), and this was serially diluted to maintain a consistent final concentration of 1% (v/v) DMSO in each assay. To maintain activity, 5 mM reduced glutathione was added to some of these from a 0.5 M stock solution. The substituted indole compound was generally tested from 100 nM to 10 μM. The ability of each compound to serve as a reducing substrate for IDO1 was fit using a Michaelis—Menten equation. […] Above 5 μM 3MI, there was a steep inhibitory effect.

Experiment [2] concerns the target ferric IDO1 (Homo sapiens, UniProt P14902). Description: Stopped-flow UV-vis spectrometry of binding to ferric IDO1. Here is the method: FIG. 3 is a graph showing the second-order rate constant of 3MI binding to ferric IDO1 determined by stopped-flow spectrometry.
FIG. 4 is a graph showing stopped-flow UV—vis spectrometry of 3MI (30 μM) binding to IDO1 (1.4 μM) over 0.2 s.
3-Mercaptoindole (3MI) was seen to bind to IDO1 with a fast on-rate of 1.7×10^6 M^−1 s^−1 under pseudo-first-order conditions (See FIG. 3), producing a UV—vis spectrum (see FIG. 4) that has a Soret at 424 nm, a lower peak at 321 nm, and broad q-bands at 537 nm and a shoulder at about 575 nm. […] Note that although 3MI is referred to here, similar results can be seen with other substituted indole compounds disclosed herein.
Using 3MI, there was an initial burst of IDO1 activity, which leveled off after 500 s, well before substrate tryptophan was consumed (FIG. 2, 202). Reduced glutathione was added to the activity assay solutions at nearly cellular concentrations (5 mM) to reduce any oxidized 3MI-disulfide products that may have formed, and this allowed for sustained 3MI-induced IDO1 activity (FIG. 2, 201).

Experiment [3] deals with ferric-superoxo IDO1 (Homo sapiens, UniProt P14902). The experiment is described as follows: Double-mixing stopped-flow spectrometry with ferric-superoxo IDO1. It counts as biochemical. The conditions noted are these: lowest 3MI concentration useful for pseudo-first-order conditions; nearly within instrument mixing time. As for the experimental part:
The nature of substituted indole compound-inhibition at high concentrations (>5 μM) was examined further with ferric-superoxo IDO1, the active tryptophan-oxidizing species. Ferric-superoxo IDO1 was generated using double-mixing stopped-flow spectrometry by mixing IDO1 prereduced with 2 mM sodium dithionite into aerobic buffer for 0.5 s. This ferric superoxo species was then mixed in the second push with 3MI that had been maintained in the reduced state using 5 mM glutathione. 3MI readily reacted with ferric-superoxo IDO1 to form ferric IDO1 without any observable intermediates. This was shown by a fast shift from the ferric-superoxo complex (λmax 415 nm) to the ferric (λmax 404 nm) that was completed nearly within the mixing time of the instrument (<10 ms) even at the lowest concentration of 3MI useful for pseudo-first-order reaction conditions (where 3MI must be at a large excess over IDO1). Following this fast conversion to ferric IDO1, there was a slower shift to the ferric 3MI-bound complex as indicated by the Soret shifting to 424 nm (as in FIG. 4). To account for both reactions, these traces were fit using a double exponential expression.

For experiment [4], the system named is myoglobin. The experiment is described as follows: Heme protein selectivity, stopped-flow UV-vis: myoglobin. In kind it is biochemical. The conditions noted are these: pseudo-first-order conditions. As for the experimental part: (§1) Since hydrogen sulfide and polysulfides are known to react with other heme proteins, the selectivity of 3MI for IDO1 was examined by mixing the substituted indole compounds (such as 3MI) with several other heme proteins and observing their reactions using stopped-flow UV—vis spectrometry.
(§2) The substituted indole compounds had no effect on catalase even at 250 μM, whereas the substituted indole compounds did appear to reduce myoglobin and hemoglobin, producing their oxygen-bound forms. The substituted indole compound were also able to reduce ferric cytochrome c to its distinctive ferrous form. The second-order rate constants of these reactions were determined under pseudo-first-order conditions giving 6.6×10^3, 1.6×10^4, and 2.7×10^5 M^−1 s^−1 for myoglobin, hemoglobin, and cytochrome c, respectively. […] Unlike myoglobin and hemoglobin, the oxy-form of IDO1 was not observed due to the relatively slow reduction of IDO1 by 3MI.

Experiment [5] has as its system hemoglobin. Description: Heme protein selectivity, stopped-flow UV-vis: hemoglobin. In kind it is biochemical. The settings on record: pseudo-first-order conditions. Here is the method:
as §1, §2

For experiment [6], the system named is ferric cytochrome c. Description: Heme protein selectivity, stopped-flow UV-vis: cytochrome c. It counts as biochemical. The conditions noted are these: pseudo-first-order conditions. As for the experimental part: as §1, §2

Chain of IDO1 (P14902 whole entry): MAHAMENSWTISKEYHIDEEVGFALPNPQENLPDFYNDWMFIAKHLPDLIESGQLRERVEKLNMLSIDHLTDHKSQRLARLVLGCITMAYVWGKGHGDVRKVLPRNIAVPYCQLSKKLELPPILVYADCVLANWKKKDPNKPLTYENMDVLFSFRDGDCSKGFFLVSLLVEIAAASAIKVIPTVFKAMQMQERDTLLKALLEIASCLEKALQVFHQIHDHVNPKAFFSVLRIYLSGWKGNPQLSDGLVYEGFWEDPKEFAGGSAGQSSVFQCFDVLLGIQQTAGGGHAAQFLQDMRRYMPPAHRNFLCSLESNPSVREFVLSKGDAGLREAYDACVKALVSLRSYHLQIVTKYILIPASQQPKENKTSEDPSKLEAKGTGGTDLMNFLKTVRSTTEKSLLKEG
Chain of ferric IDO1 (P14902 whole entry): as above
Chain of ferric-superoxo IDO1 (P14902 whole entry): as above

For the compound `Fc1cc2c(S)c[nH]c2cc1Cl` [6-chloro-5-fluoro-1H-indole-3-thiol], the “IDO1 activity, product N-formylkynurenine absorbance at 321 nm over time (FIG. 6)” value in experiment [1] (IDO1 50 nM, 0.1 mM L-tryptophan, 5 mM glutathione, 100 mM sodium phosphate pH 7.0, <1 μM compound, background subtracted) is on record as “increase in absorbance”.
With `Sc1c[nH]c2ccccc12` [3MI, 3-Mercaptoindole], the “concentration above which there was a steep inhibitory effect on IDO1 activity” value in experiment [1] is on record as “Above 5 μM”. The “3MI-induced IDO1 activity with glutathione” value in experiment [1] (5 mM reduced glutathione added (FIG. 2, 201)) was “sustained”. For the same compound, the “time after which the initial burst of IDO1 activity leveled off” value in experiment [1] (3MI without glutathione (FIG. 2, 202), before tryptophan was consumed) is recorded as 500 s. Further, the “activation of IDO1” value in experiment [1] (FIG. 2) is recorded as “inducing turnover even at nM concentrations”. Moreover, the Ki in experiment [1] (single exponential fit of the inhibitory region at higher concentrations, read-out: Ki app (apparent Ki at half-activity)) was 8 ± 3 µM. Besides, the “selectivity: IDO1 binding rate constant exceeding that of the cytochrome c reduction” value in experiment [2] (IDO1 versus cytochrome c) is “an order of magnitude”. Moreover, the kon in experiment [2] (pseudo-first-order conditions, stopped-flow, ferric IDO1, read-out: on-rate / second-order rate constant of binding to IDO1) amounted to 1.7e+06 M⁻¹ s⁻¹. In addition, in experiment [3], the “time to complete the shift from ferric-superoxo complex to ferric IDO1” value is reported as less than 10 ms. Further, the “second-order rate constant of reaction (reduction) with myoglobin” value in experiment [4] came to 6600 M⁻¹ s⁻¹. Also, the “second-order rate constant of reaction (reduction) with hemoglobin” value in experiment [5] turned out to be 16000 M⁻¹ s⁻¹. Also, the “second-order rate constant of reaction (reduction) with cytochrome c” value in experiment [6] was found to be 270000 M⁻¹ s⁻¹.
